Source: US6605641B2, “20-HETE antagonists and agonists” (MCW Research Foundation, priority 1998, dated 2003)
“Also recorded” adds a separate entry of the source.

Key:
[1] = test system: vasoconstrictor response to 20-HETE in isolated renal interlobular arteries; test: 20-HETE antagonist activity: dose response curves to 20-HETE before and after addition of analog; type: cell-based, rat; details: for effect of analog on the vasoconstrictor response to 20-HETE (antagonist activity): analog 0.5 or 1 μM in bath, 20-HETE 10^−8 to 10^−6 M
Description: We also disclose below a test for 20-HETE antagonist activity. In this analysis, test compounds were analyzed by a cumulative dose response curve to 20-HETE generated before and after the addition of the test compound. […] We envision suitable antagonists as similarly blocking the vasoconstrictor response.
(§1) Isolated vessel studies. Interlobular arterioles (70-120 μm inner diameter) were microdissected from the kidneys of rats. The vessels were mounted on glass micropipettes in a perfusion chamber containing physiological saline solution equilibrated with a 95% O2-5% CO2 gas mixture and maintained at 37° C. The vessel were secured to the pipettes and side branches were tied off with 10-0 silk suture. The inflow pipette was connected to a pressurized reservoir to control of intraluminal perfusion pressure, which was monitored using a transducer (Cobe, Lakewood, Colo.). The vessels were stretched to in vivo length measured before microdissection. The outflow cannula was clamped off and intraluminal pressure was maintained at 90 mm Hg during the experiment. Vascular diameters were measured with a video system composed of a stereo microscope (Carl Zeiss, Inc., Germany), a CCTV television camera (KP-130AU, Hitachi, Japan), a videocassette recorder (AG-7300, Panasonic, Japan), a television monitor (CVM-1271, Sony, Japan), and a video measuring system (VIA-100, Boeckeler Instrument Co., Tucson, Ariz.).
(§2) The composition of the perfusate and the bath was (in mM): 119 NaCl, 4.7 KCl, 1.17 MgSO4, 1.6 CaCl2, 12 NaHCO3, 1.18 NaH2PO4, 0.03 EDTA and 10 glucose, pH 7.4. Indomethacin (5 μM), baicalein (0.5 μM) and 17-ODYA (1 μM) were added to the bath to block the endogenous formation and metabolism of eicosanoids via the cyclooxygenase, lipoxygenase and cytochrome P450 pathways. After the equilibration period, cumulative dose response curves were generated for each of the 20-HETE analogs.
20-HETE antagonist activity. […] In these experiments, cumulative dose response curves to 20-HETE (10^−8 to 10^−6 M) were generated before and after addition of 5(S)-HETE (0.5 μM), 8(S)-HETE (1 μM), 12(S)-HETE (0.5 μM), 15(S)-HETE (1 μM), 19(S)-HETE (1 μM), the C19-analog (1 μM), arachidonic acid (1 μM), 20-carboxy-arachidonic acid (1 μM), reverse 20-HETE (1 μM), saturated 20-HETE (1 μM), and the saturated C19-analog (1 μM) to the bath. Vascular diameters were recorded 2 to 3 minutes after the addition of each dose of 20-HETE to the bath.

[2] = test system: isolated, pressured rat renal interlobular arteries; test: Isolated vessel studies: vasoconstrictor response (vascular diameter) to cumulative doses of 20-HETE analogs; type: cell-based; details: 10^−8 to 10^−6 M (up to 1 μM), indomethacin, baicalein, 17-ODYA present, diameter 2 to 3 minutes after addition
Description: General. Experiments were performed on 10 to 12-week old male Sprague-Dawley rats purchased from Harlan Sprague-Dawley Laboratories (Indianapolis, Ind.). The rats were housed in the animal care facility at the Medical College of Wisconsin, which is approved by the American Association for the Accreditation of Laboratory Animal Care. The animals had free access to food and water. All protocols involving animals received approval by the Animal Care Committee of the Medical College of Wisconsin.
as §1, §2
Effect of the position of the hydroxyl group on the vasoconstrictor response to 20-HETE. These experiments examined the effects of increasing concentrations of 5(S)-, 8(S)-, 12(S)-, 15(S)-, and 19(S)-HETE on the diameter of isolated, pressured rat renal interlobular arteries. All of these analogs have the same number of carbons, double bonds and molecular weight as 20-HETE (FIG. 1). The major difference between these compounds and 20-HETE is the position of the OH group along the carbon chain. Additional experiments were performed with arachidonic acid and 20-carboxyarachidonic acid, which are structurally similar to 20-HETE but lack a hydroxyl group on the 20th carbon and 20-hydroxyeicosa-6, 15-dienoic acid (reverse 20-HETE) which has the carboxy- and hydroxy-moieties on the 1st and 20th carbons reversed. Cumulative dose response curves were generated for each compound (10^−8 to 10^−6 M) in the presence of indomethacin, baicalein, and 17-ODYA. Vascular diameters were recorded 2 to 3 minutes after the addition of the compounds to the bath.
Effect of the double bonds and carbon chain length to the vasoconstrictor response to 20-HETE. We next examined the importance of the double bonds and the length of the carbon chain to the vasoconstrictor response to 20-HETE. In these studies, the double bonds in the 20-HETE molecule were removed creating partial and saturated 20-HETE derivatives (20-hydroxyeicosa-6(Z),15(Z) dienoic acid; 20-hydroxyeicosanoic acid, FIG. 1). 20-HETE was also shortened by one carbon, creating a 19-carbon analog (19-hydroxynonadeca-5(Z),8(Z),11(Z),14(Z)-tetraenoic acid, FIG. 1) and double bonds were removed, creating a saturated 19-carbon analog (19 hydroxynonadecanoic acid, FIG. 1). […]

With `CCCCC/C=C\C/C=C\C/C=C\C=C\[C@@H](O)CCCC(=O)O` [5(S)-HETE] the “effect of analog on the vasoconstrictor response to 20-HETE (antagonist activity)” value (from here on “effect of analog”) ([1]; listed as 5-HETE) was “completely blocked; also recorded: very effective antagonists; also recorded: blocked the vasoconstrictor response to 20-HETE”, the “effect on the diameter of renal interlobular arteries (vasoconstrictor/agonist activity)” value (“effect … (vasoconstrictor/agonist activity)” for short) [2] was “no significant effect” and the “effect … (vasoconstrictor/agonist activity)” value ([2]; listed as 5-HETE) was “no effect”.

For `CCCCC/C=C\C/C=C\C=C\[C@@H](O)C/C=C\CCCC(=O)O` [8(S)-HETE], the “effect of analog” value [1] was “no significant effect”, the “effect of analog” value ([1]; listed as 8-HETE) was “did not antagonize” and the “effect … (vasoconstrictor/agonist activity)” value [2] was “no significant effect”. For the same compound, the “effect … (vasoconstrictor/agonist activity)” value ([2]; listed as 8-HETE) was “no effect”.

With `CCCCC/C=C\C[C@H](O)/C=C/C=C\C/C=C\CCCC(=O)O` [12(S)-HETE] the “effect of analog” value [1] was “no significant effect”, the “effect of analog” value ([1]; listed as 12-HETE) was “did not antagonize” and the “effect … (vasoconstrictor/agonist activity)” value [2] was “no significant effect”. For the same compound, the “effect … (vasoconstrictor/agonist activity)” value ([2]; listed as 12-HETE) was “no effect”.

In the case of `CCCCC[C@H](O)/C=C/C=C\C/C=C\C/C=C\CCCC(=O)O` [15(S)-HETE], the “effect of analog” value ([1]; listed as 15-HETE) is reported as “completely blocked; also recorded: very effective antagonists; also recorded: blocked the vasoconstrictor response to 20-HETE”, the “effect … (vasoconstrictor/agonist activity)” value [2] is reported as “no significant effect” and the “effect … (vasoconstrictor/agonist activity)” value ([2]; listed as 15-HETE) is reported as “no effect”.

For `C[C@H](O)CCC/C=C\C/C=C\C/C=C\C/C=C\CCCC(=O)O` [19(S)-HETE], the “effect of analog” value ([1]; listed as 19-HETE) was “completely eliminated the response to 20-HETE; also recorded: very effective antagonists”, the “effect … (vasoconstrictor/agonist activity)” value [2] was “no significant effect” and the “effect … (vasoconstrictor/agonist activity)” value ([2]; listed as 19-HETE) was “no effect”.

For `O=C(O)CCCC/C=C\CCCCCCC/C=C\CCCCO` [20-Hydroxyeicosa-6(Z),15(Z)-dienoic Acid], the “effect of analog” value [1] was “completely blocked”, the “effect of analog” value ([1]; listed as partially saturated reverse 20-HETE) was “completely eliminated the response to 20-HETE” and the “effect … (vasoconstrictor/agonist activity)” value [2] was “eliminated agonist activity”.

For `O=C(O)CCC/C=C\C/C=C\C/C=C\C/C=C\CCCCCCO` [21-HETE, 21-Hydroxyheneicosa-5(Z),8(Z),11(Z),14(Z)-tetraenoic Acid], the “effect … (vasoconstrictor/agonist activity)” value [2] was “just as potent constrictors as 20-HETE” and the “effect … (vasoconstrictor/agonist activity)” value ([2]; listed as 21-carbon derivative) was “just as potent vasoconstrictors as 20-HETE”.

With `CC(C)(O)CCCCC=CCC=CCC=CCC=CCCCC(=O)O` [dimethyl 20-HETE, 20,20-Dimethyl-20-HETE] the “effect … (vasoconstrictor/agonist activity)” value [2] was “just as potent constrictors as 20-HETE” and the “effect … (vasoconstrictor/agonist activity)” value ([2]; listed as dimethyl derivative) was “just as potent vasoconstrictors as 20-HETE”.

With `O=C(O)CCC/C=C\CCCCCCC/C=C\CCCCCO` [partially saturated 20-HETE derivative, 20-Hydroxyeicosa-5(Z),14(Z)-dienoic Acid] the “effect … (vasoconstrictor/agonist activity)” value [2] was “potent a constrictor as 20-HETE” and the “effect … (vasoconstrictor/agonist activity)” value ([2]; listed as partially saturated analog) was “retained vasoconstrictor activity”.

In the case of `O=C(O)CCCCCCCCCCCCCCCCCCO` [saturated 19-carbon analog, 19-Hydroxynonadecanoic Acid], the “reduction of the vasoconstrictor response to 20-HETE” value ([1]; analog 1 μM in bath, for arachidonic acid response to 1 μM 20-HETE) is reported as “about 50%” and the “effect of analog” value [1] is reported as “not as effective as the parent compounds”.
